The values below come from ChEMBL document CHEMBL1201862, “PubChem BioAssay data set” (2004).

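Five compound concentrations were applied to cells in 96-well plates for 48 hours; endpoints were derived by simple linear interpolation of the resulting dose-response curve. GI50 = concentration required for 50% inhibition of growth.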 Active and inactive are the calls of the source. Cut-off read from the data, not from the text of the source: active = GI50 up to about 1.1 µM and inactive = higher.

Assay in all cases: NCI tumour cell line growth inhibition, 48 h
Assay [1] has as its system KM-20L2.
Assay [2] has as its system SK-MEL-28.
Assay [3] has as its system OVCAR-8.
For assay [4], the system named is OVCAR-3.
Assay [5] relates to MOLT-4.
The test system of assay [6] is COLO 205.
Assay [7] concerns SNB-19.
For assay [8], the system named is HOP-62.
In assay [9] the test system is RPMI-8226.
Assay [10] has as its system UO-31.
In assay [11] the test system is Malme-3M.
Assay [12] relates to U-251.
Assay [13] has as its system HCT-116.
Assay [14] has as its system SF-268.
In assay [15] the test system is HCC 2998.
The subject of assay [16] is IGROV-1.
Assay [17] deals with OVCAR-4.
Assay [18] concerns HCT-15.
Assay [19] relates to SR.
In assay [20] the test system is NCI/ADR-RES.

For the compound `CCCCN(CCCC)C(=Nc1ccccc1)N(CCCC)CCCC`, the GI50 in [1] was 0.851 µM (active); in assay [2] it was 3.1 µM (inactive); in assay [3], 9.25 µM (inactive); in assay [4], 3.3 µM (inactive); in assay [5], 2.72 µM (inactive); in assay [6], 2.77 µM (inactive). The GI50 in assay [7] was 6.81 µM (inactive); in [8] it was 6.87 µM (inactive); in assay [9], 1.8 µM (inactive); in [10] it was 2.81 µM (inactive); in [11], 7.94 µM (inactive); in assay [12], 1.95 µM (inactive). The GI50 in assay [13] is 1.67 µM (inactive); in assay [14], 11.2 µM (inactive); in assay [15] it was 4.32 µM (inactive); in assay [16] it was 3.15 µM (inactive).

For `Cc1c(-c2coc(-c3ccc([N+](=O)[O-])cc3)n2)c(=O)n(-c2ccccc2)n1C`, the GI50 in assay [1] was > 100 µM (inactive); in assay [2] it was > 100 µM (inactive); in [3] it was > 100 µM (inactive); in assay [4] it was > 100 µM (inactive); in assay [17], > 100 µM (inactive); in assay [18] it was above 100 µM. The GI50 in [5], in [6], in assay [8], in assay [9], in [10] and in [11] was > 100 µM (inactive) in each case. For the same compound, the GI50 in [12], in [13], in assay [14], in assay [15] and in assay [16] was > 100 µM (inactive) each time.

Turning to `Clc1nc(Cl)nc(NC23CC4CC(CC(C4)C2)C3)n1`, the GI50 in [2] is 19.6 µM (inactive); in assay [3] it was 18.1 µM (inactive); in assay [4], 18.8 µM (inactive); in assay [17] it was 17.7 µM (inactive); in [18], 15.6 µM; in assay [5], 17.9 µM (inactive). Moreover, the GI50 in assay [6] was 17.5 µM (inactive); in [7], 21.4 µM (inactive); in assay [8], 17.7 µM (inactive); in [9], 12 µM (inactive); in assay [19], 20.1 µM (inactive); in [10] it was 9.33 µM (inactive). Also, the GI50 was 21 µM (inactive) in assay [20]; 16.2 µM (inactive) in assay [11]; 15.5 µM (inactive) in [12]; 17.1 µM (inactive) in assay [13]; 19.2 µM (inactive) in assay [14]; 20.3 µM (inactive) in [15]. In addition, the GI50 in [16] is 13.7 µM (inactive).

For `CC(=O)OCCOCBr`, the GI50 in assay [1] is > 100 µM (inactive); in [2], > 100 µM (inactive); in assay [3] it was > 100 µM (inactive); in [4] it was > 100 µM (inactive); in [17], > 100 µM (inactive); in assay [18], above 100 µM. The GI50 in assay [6], in assay [8], in assay [9], in [10], in [11] and in [12] was > 100 µM (inactive) throughout. Moreover, the GI50 in assay [13], in [14] and in assay [16] was > 100 µM (inactive) each time.

On to `C(=N\NC1=NCCN1)/c1cccc2cc3ccncc3nc12`, for which the GI50 in assay [2] is 10.1 µM (inactive); in assay [3], 1.93 µM (inactive); in [4], 4.81 µM (inactive); in assay [17], 3.33 µM (inactive); in [18] it was 3.4 µM; in assay [5], 1.69 µM (inactive). The GI50 in assay [6] is 1.21 µM (inactive); in assay [7], 9.53 µM (inactive); in assay [8], 6.22 µM (inactive); in assay [9], 1.93 µM (inactive); in assay [19], 1.08 µM (active); in [10], 3.21 µM (inactive). Moreover, the GI50 in assay [20] was 3.24 µM (inactive); in assay [11] it was 10.6 µM (inactive); in [12] it was 1.94 µM (inactive); in [13], 1.57 µM (inactive); in assay [14] it was 3.85 µM (inactive); in assay [15], 5.71 µM (inactive). Also, the GI50 in assay [16] was 3.24 µM (inactive).

For the compound `CC(=O)OCCC(O[Si](c1ccccc1)(c1ccccc1)C(C)(C)C)C(C)(C)O` (stereo not drawn), the GI50 in assay [1] was 32.3 µM (inactive); in [2], 51.2 µM (inactive); in assay [3], 38.9 µM (inactive); in [4] it was 21 µM (inactive); in assay [17], 64.1 µM (inactive); in assay [18] it was 31.1 µM. Also, the GI50 in assay [5] is 24 µM (inactive); in [6], 15.8 µM (inactive); in assay [7] it was 63.1 µM (inactive); in assay [9] it was 23.9 µM (inactive); in [10], 22.1 µM (inactive); in assay [11], > 100 µM (inactive). Moreover, the GI50 in assay [12] was 36.3 µM (inactive); in assay [13], 17.3 µM (inactive); in assay [14], 38.5 µM (inactive); in assay [16] it was 36.3 µM (inactive).

As to `O=C(O)CCCN/C(=C1\C(=O)C(=O)N(c2ccccc2)C1=O)c1ccccc1`, the GI50 in [2] was > 100 µM (inactive); in [3], > 100 µM (inactive); in assay [4], > 100 µM (inactive); in assay [17], 37.2 µM (inactive); in [18] it was above 100 µM; in assay [5], > 100 µM (inactive). Further, the GI50 was > 100 µM (inactive) in assay [6]; > 100 µM (inactive) in assay [7]; > 100 µM (inactive) in assay [8]; > 100 µM (inactive) in assay [9]; 20 µM (inactive) in assay [19]; > 100 µM (inactive) in [10]. Besides, the GI50 in assay [20], in assay [11], in [12], in [13], in [14] and in assay [15] was > 100 µM (inactive) in each case. Besides, the GI50 in [16] was > 100 µM (inactive).

Regarding `O=C(CC1(O)C(=O)Nc2ccccc21)c1ccc(Cl)cc1Cl` (stereo not drawn), the GI50 in [1] is > 100 µM (inactive); in assay [2], > 100 µM (inactive); in [3], > 100 µM (inactive); in assay [4], > 100 µM (inactive); in [17], > 100 µM (inactive); in [18], above 100 µM. Besides, the GI50 in [5], in assay [6], in assay [7], in assay [9], in assay [10] and in assay [11] was > 100 µM (inactive) throughout. Moreover, the GI50 in [13], in assay [14] and in assay [16] was > 100 µM (inactive) each time.

Turning to `C=CC1(CC[C@]2(c3ccc(OC)c(OC)c3)C=[N+]([O-])O[C@H](O[C@@H]3CCCC[C@H]3C(C)(C)c3ccccc3)C2)OCC(C)(C)CO1`, the GI50 in [2] was 19.9 µM (inactive); in assay [3], 7.64 µM (inactive); in [4], 6.59 µM (inactive); in assay [17], 11.3 µM (inactive); in [18], 8.2 µM; in assay [5], 3.78 µM (inactive). In addition, the GI50 in [6] was 16.9 µM (inactive); in [7], 21.9 µM (inactive); in assay [8], 14.7 µM (inactive); in assay [9] it was 2.34 µM (inactive); in assay [19] it was > 19.9 µM (inactive); in [10] it was 11.5 µM (inactive). Further, the GI50 in [20] was 10.7 µM (inactive); in [11], 7.26 µM (inactive); in assay [12] it was 20 µM (inactive); in [13] it was 5.57 µM (inactive); in [14] it was 7.13 µM (inactive); in assay [15] it was 16.1 µM (inactive). Besides, in assay [16], the GI50 is 6.82 µM (inactive).

Consider `CCOC(=O)C(C)c1nc2cc(N3CCOCC3)c(F)cc2[nH]c1=O` (stereo not drawn), for which the GI50 was > 100 µM (inactive) in assay [2]; > 100 µM (inactive) in assay [3]; > 100 µM (inactive) in assay [4]; > 100 µM (inactive) in assay [17]; above 100 µM in assay [18]; > 100 µM (inactive) in assay [5]. For the same compound, the GI50 in [6], in assay [7], in assay [8], in assay [9], in assay [19] and in assay [10] was > 100 µM (inactive) throughout. Moreover, the GI50 in [20], in [11], in assay [12], in [13], in assay [14] and in assay [15] was > 100 µM (inactive) in each case. For the same compound, in assay [16], the GI50 was > 100 µM (inactive).

As to `Nc1csc(-c2scc3c2OCCO3)c1N`, the GI50 in [2] is 17.5 µM (inactive); in assay [3] it was 16.1 µM (inactive); in [4] it was 14.8 µM (inactive); in assay [17], 26.6 µM (inactive); in assay [18], 17.7 µM; in assay [5], 27.8 µM (inactive). For the same compound, the GI50 in assay [6] was 28.8 µM (inactive); in assay [7], 32.7 µM (inactive); in assay [8] it was 15.6 µM (inactive); in assay [9], 16.9 µM (inactive); in [19], 28.6 µM (inactive); in assay [10], 17.9 µM (inactive). Besides, the GI50 in assay [20] was 22.6 µM (inactive); in [11] it was 16 µM (inactive); in [12] it was 15.6 µM (inactive); in assay [13], 20 µM (inactive); in assay [14], 18.8 µM (inactive); in [15], 22.4 µM (inactive). In addition, in assay [16], the GI50 was 22.5 µM (inactive).
